# Results reported in patent publication US5246945A, “Piperidine derivatives” (Nisshin Flour Milling Co., Ltd., priority 1991, dated 1993).
# Tested on: 5-HT3 receptors
# Assay: Antagonism of 5-HT at 5-HT3 receptors: inhibition of 5-HT-induced bradycardia (von Benzold Jarisch Reflex) in anesthesized rats
# Type: in vivo, rat
# Conditions: 100 μg/kg, i.v. (intrajugular); 5-HT 30 μg/kg given 5 min. later; urethane-anesthesized rats; tested as hydrochloride except Example 9
# Experimental: The compounds prepared in the above examples were respectively tested for antagonism of 5-HT at 5-HT3 receptors.
# Administration of 5-HT (serotonin) to anesthesized rats via jugular vein induces temporary bradycardia (von Benzold Jarisch Reflex)(A.S. Paintal, Physiol. Rev., 53, 159-227 (1973)).
# Thus, rats were anesthesized with urethane (1 g/kg, i.p.) and recorded for blood pressure and heart rate from left femoral artery. Percent inhibition was calculated from bradycardia induced by 5-HT (30 μg/kg) given 5 min. following intrajugular administration of a compound of the invention, taking the bradycardia induced by the intrajugular administration of 5-HT.
# In this test, all of the test compounds were tested in the form of hydrochloride except for the compounds prepared in Example 9. Therefore, concentration of the test drug is expressed in terms of the concentration of the hydrochloride except for the compounds prepared in Example 9.
row,Compound,% Inhibition (of bradycardia induced by 5-HT) [%]
1,"CC(OC(=O)c1nn(C)c2ccccc12)C1CCCCN1C (single isomer, unassigned) [1 (less polar isomer), 1-(1-Methyl-2-piperidyl)ethyl 1-methylindazole-3-carboxylate]",49
2,"COc1cc(N)ccc1C(=O)OC(C)C1CCCCN1C (single isomer, unassigned) [5 (more polar isomer), 1-(1-Methyl-2-piperidyl)ethyl 2-methoxy-4-aminobenzoate]",16
3,"COc1cc(N)c(Cl)cc1C(=O)OC(C)C1CCCCN1C (single isomer, unassigned) [7 (less polar isomer), (1-Methyl-Z-piperidyl)ethyl 2-methoxy-4 amino-5-chlorobenzoate]",50
4,"CN1CCCCC1COC(=O)c1nn(C)c2ccccc12 (stereo not shown) [Example 2, 1-Methyl-2-piperidylmethyl 1-methylindazole-3-carboxylate]",34
5,COc1ccc2ncc(C(=O)OCC3CCCCN3C)cc2c1 (stereo not shown) [Example 3],26
6,"COc1cc(N)c(Cl)cc1C(=O)OCC1CCCCN1C (stereo not shown) [Example 6, 1-Methyl-2-piperidylmethyl 2-methoxy-4-amino-5-chlorobenzoate]",76
7,"Cn1nc(C(=O)OCC2CCCC[N+]2(C)C)c2ccccc21 (stereo not shown) [Example 9, 1,1-Dimethyl-2-(1-methyl-3-indazolylcarboxymethyl)-piperidinium iodide]",58
